Target: T1, human α7 nAChR (Homo sapiens, UniProt P36544)
T1 construct: gene CHRNA7; full-length receptor, cRNA from pMXT vector, Xenopus laevis oocytes; homomeric pentamer
Assay: two-electrode voltage clamp, Xenopus oocytes
Format: cell-based

T1 sequence (P36544 23-502): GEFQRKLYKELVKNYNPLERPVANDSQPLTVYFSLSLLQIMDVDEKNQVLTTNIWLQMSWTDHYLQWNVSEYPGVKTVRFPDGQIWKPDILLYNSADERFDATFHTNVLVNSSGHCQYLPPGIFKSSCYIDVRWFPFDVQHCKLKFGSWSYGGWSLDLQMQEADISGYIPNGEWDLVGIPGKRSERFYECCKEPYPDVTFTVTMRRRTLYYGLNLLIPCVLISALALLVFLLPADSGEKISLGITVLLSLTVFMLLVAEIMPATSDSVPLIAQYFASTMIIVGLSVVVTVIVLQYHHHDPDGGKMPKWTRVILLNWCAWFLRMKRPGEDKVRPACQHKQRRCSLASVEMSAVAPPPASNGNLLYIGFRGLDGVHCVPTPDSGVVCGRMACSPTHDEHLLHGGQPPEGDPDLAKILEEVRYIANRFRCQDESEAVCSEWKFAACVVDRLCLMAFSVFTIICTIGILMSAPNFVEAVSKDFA

IC50: 26.7 ± 1.6 µM
Compound: O=C(Nc1ccc(Br)cn1)[C@@H]1CCCNC1 [CU2017, N-(5-bromopyridin-2-yl)piperidine-3-carboxamide]

Reference: PMC5818190, “An allosteric binding site of the α7 nicotinic acetylcholine receptor revealed in a humanized acetylcholine-binding protein” (The Journal of Biological Chemistry, 2017)
